Data taken from ChEMBL document CHEMBL1649555, “Characterization of pABVA01, a plasmid encoding the OXA-24 carbapenemase from Italian isolates of Acinetobacter baumannii” (2009).
Values after ≈ are worked out from the molar mass of the structure shown.

Legend:
Type in all cases: functional
Acinetobacter baumannii [1] = test: Antibacterial activity against blaOXA-24-positive Acinetobacter baumannii isolate RUH134 by CLSI broth microdilution method
Acinetobacter baumannii [2] = test: Antibacterial activity against blaOXA-24-positive Acinetobacter baumannii isolate N50 by CLSI broth microdilution method
Acinetobacter baumannii [3] = test: Antibacterial activity against blaOXA-24-positive Acinetobacter baumannii isolate RUH134 harboring plasmid ABVA01 by CLSI broth microdilution method
Acinetobacter baumannii [4] = test: Antibacterial activity against blaOXA-24-positive Acinetobacter baumannii isolate VA-566/00 by CLSI broth microdilution method
Acinetobacter baumannii [5] = test: Antibacterial activity against blaOXA-24-positive Acinetobacter baumannii isolate N50 by CLSI broth microdilution method in presence of Sulbactam
Acinetobacter baumannii [6] = test: Antibacterial activity against blaOXA-24-positive Acinetobacter baumannii isolate VA-566/00 by CLSI broth microdilution method in presence of Sulbactam
Acinetobacter baumannii [7] = test: Antibacterial activity against blaOXA-24-positive Acinetobacter baumannii isolate RUH134 harboring plasmid ABVA01 by CLSI broth microdilution method in presence of Sulbactam
Acinetobacter baumannii [8] = test: Antibacterial activity against blaOXA-24-positive Acinetobacter baumannii isolate RUH134 by CLSI broth microdilution method in presence of Sulbactam

Compound	MIC (Acinetobacter baumannii [1]) [µg/mL]	MIC (Acinetobacter baumannii [2]) [µg/mL]	MIC (Acinetobacter baumannii [3]) [µg/mL]	MIC (Acinetobacter baumannii [4]) [µg/mL]	MIC (Acinetobacter baumannii [5]) [µg/mL]	MIC (Acinetobacter baumannii [6]) [µg/mL]	MIC (Acinetobacter baumannii [7]) [µg/mL]	MIC (Acinetobacter baumannii [8]) [µg/mL]
NCC[C@H](O)C(=O)N[C@@H]1C[C@H](N)[C@@H](O[C@H]2O[C@H](CN)[C@@H](O)[C@H](O)[C@H]2O)[C@H](O)[C@H]1O[C@H]1O[C@H](CO)[C@@H](O)[C@H](N)[C@H]1O [AMIKACIN]	4 (≈ 6.83 µM)	256 (≈ 437 µM)	4 (≈ 6.83 µM)	64 (≈ 109 µM)	–	–	–	–
CC1(C)S[C@@H]2[C@H](NC(=O)[C@H](N)c3ccccc3)C(=O)N2[C@H]1C(=O)O [AMPICILLIN]	–	–	–	–	32	64	64	64
CC(C)(O/N=C(\C(=O)N[C@@H]1C(=O)N2C(C(=O)[O-])=C(C[n+]3ccccc3)CS[C@H]12)c1csc(N)n1)C(=O)O [CEFTAZIDIME]	16 (≈ 29.3 µM)	> 256	16 (≈ 29.3 µM)	> 256	–	–	–	–
C[C@@H](O)[C@H]1C(=O)N2C(C(=O)O)=C(SCCNC=N)C[C@H]12 [IMIPENEM ANHYDROUS]	0.25 (≈ 0.835 µM)	128 (≈ 428 µM)	64 (≈ 214 µM)	256 (≈ 855 µM)	–	–	–	–
C[C@@H](O)[C@H]1C(=O)N2C(C(=O)O)=C(S[C@@H]3CN[C@H](C(=O)N(C)C)C3)[C@H](C)[C@H]12 [MEROPENEM]	1 (≈ 2.61 µM)	128 (≈ 334 µM)	128 (≈ 334 µM)	256 (≈ 668 µM)	–	–	–	–
CN(C)c1cc(NC(=O)CNC(C)(C)C)c(O)c2c1C[C@H]1C[C@H]3[C@H](N(C)C)C(O)=C(C(N)=O)C(=O)[C@@]3(O)C(O)=C1C2=O [TIGECYCLINE]	1 (≈ 1.71 µM)	1 (≈ 1.71 µM)	1 (≈ 1.71 µM)	4 (≈ 6.83 µM)	–	–	–	–
COLISTIN	0.5	> 8	0.5	0.5	–	–	–	–
GENTAMICIN	> 256	> 256	> 256	> 256	–	–	–	–
